Reference: patent US20150259294A1, “METHOD OF PLANT GROWTH PROMOTION USING CARBOXAMIDE DERIVATIVES” (BAYER CROPSCIENCE AG, priority 2012, published 2015)

Legend:
[1] = test system: winter wheat variety Dekan; experiment: Foliar application field trial Höfchen: green leaves and yield in winter wheat; format: in vivo; details: for Greening Effect (%): 100 EC, assessed at EC 85, 38 days after second application, untreated control 0; for Grain Yield (dt/ha): untreated control 85
Protocol: The field trial was conducted in the experimental station “Höfchen” in Germany in spring 2012. Winter wheat, variety “Dekan”, was planted on October 2011. Fertilization, herbicide- and plant growth regulator applications were carried out according to the local agricultural practice.
The trial was conducted with 4 replicates. Plot size was 12 m^2 and there were four replicates.
Compound A5 was applied as a 100 EC formulation with rates of 37 and 75 g a.i./ha twice in the growing season at BBCH-growth stages EC 33 and 55.
The effect on the green foliage was assessed on July 2012, 38 days after the second application, at growth stage EC 85, (see table 6).
(§1) The trial was harvested on August 2012.

[2] = test system: wheat leave discs; experiment: Chlorophyll preservation bioassay in wheat leave discs; details: wheat leave discs at 4 dpt vs control at 0 dpt; formula (I) compounds in EC100 formulation, other SDHI in field formulations
Protocol: To confirm the greening effect of compounds of formula (I) according to the invention observed in field trials, a simple bioassay was set up using wheat and barley. Discs of 1 cm of diameter were cut within leaves collected from 4 weeks old plants and deep at room temperature in water for 1 hour to allow ethylene produced after wound injury to dissipate. Control samples were produced dipping leave discs for 15 min in a solution of 5% DMSO-10% acetone-0.005% tween80 (bioassay formulation), immediately frozen (control 0 day post treatment-dpt) or deposited on Whatmann filter paper soaked by the bioassay formulation, in Petri dishes, […] Leaves discs treated with test compound were processed in the same way. In this case, leave discs were deep for 15 minutes in test compound solution and left to incubate on filter paper soaked with the corresponding test solution. Compounds of formula (I) according to the invention were tested in EC100 formulation unless otherwise specified; Other SDHI fungicides (Fluxapyroxad, Isopyrazam and Hambra) were tested in their respective field formulations.
Leave discs were frozen in liquid nitrogen and ground prior to chlorophyll extraction with 1 mL of an acetone-water (80-20 vol/vol) solution and chlorophyll concentration evaluation at 663 nm. Percentages of chlorophyll content in 3 or 4 dpt controls and corresponding treated samples were reported to the chlorophyll content measured in 0 dpt controls.

[3] = test system: winter wheat variety Akteur; experiment: Foliar application field trial Langfoerden (FA12DSD559XJE1): yield in winter wheat; format: in vivo; details: for Grain Yield (dt/ha): 100 EC, disease free, untreated control 62
Protocol: The field trial FA12DSD559XJE1 was conducted in the experimental station “Langfoerden” in Germany in spring 2012.
Winter wheat, variety “Akteur”, was planted on November 2011. Fertilization, herbicide- and plant growth regulator applications were carried out according to the local agricultural practice.
The trial was conducted with 4 replicates. Plot size was 16 m^2 and there were four replicates.
Compound A5 was applied as a 100 EC formulation with rates of 37 and 75 g a.i./ha twice in the growing season at BBCH-growth stages EC 33 and 61.
In this trial there was no significant disease severity assessed. It can be considered as disease free.
as §1

[4] = test system: soybean cultivar BRS 245; experiment: Soybean seed treatment field trial: development and yield; format: in vivo; details: for Plant Height (cm)/%: 050 SC, 42 days after planting, untreated control 33 cm = 100%; for Weight Root (g)/% / Weight Dry Plant (g)/%: 49 days after planting; for Weight Root (g)/%: untreated control 10 g = 100%; for Weight Dry Plant (g)/%: untreated control 46 g = 100%; for Grain Yield (dt)/%: untreated control 28 dt = 100%; for Weight of 1000 Grains (g)/%: untreated control 125 g = 100%
Protocol: Seeds of the Brazilian soybean cultivar BRS 245 were treated with compound A5: […] The product was applied as 050 SC with rates of 25 and 100 g a.i./dt. The field trial was set up in an experimental station close to Paulinia, S. P., in Brazil, in February 2012. […] Fertilization, herbicide- and insecticide applications were carried out according to the local agricultural practice. 42 days after planting plant height, 49 days after planting the dry weight of both entire green plants and the roots were measured. This trial was done under almost disease free conditions (“Asian Soybean Rust” Phakopsora pachyrhizi arrived about month after planting with a very low severity).

[5] = test system: winter wheat variety Dekan; experiment: Foliar application field trial Laacherhof: yield of winter wheat; format: in vivo; details: 50 g a.i./ha, sprayed threefold at BBCH 31, 39 and 69, 100EC formulation with adjuvant
Protocol: (§2) The field trial in winter wheat was conducted in the experimental station “Laacherhof” in Germany in spring/summer 2012.
(§3) Seeds of the winter wheat variety “Dekan” were planted on Oct. 17, 2011. Fertilization, herbicide- and plant growth regulator applications were carried out according to the local agricultural practice. Additionally, a cover spray with “Pronto Plus” was carried out at BBCH-growth stage 51 in order to keep brown rust (Puccinia triticina) out of the field trial (trial under pathogen-free conditions). The trial was conducted with 3 replicates and the replicates 2 and 3 were randomized. The plot size was 8.8 m^2.
(§4) Compounds A5 (N-(5-chloro-2-isopropylbenzyl)-N-cyclopropyl-3-(difluoromethyl)-5-fluoro-1-methyl-1H-pyrazole-4-carboxamide), A7 (N-cyclopropyl-3-(difluoromethyl)-5-fluoro-N-(5-fluoro-2-isopropylbenzyl)-1-methyl-1H-pyrazole-4-carboxamide), A12 (N-cyclopropyl-3-(difluoromethyl)-5-fluoro-N-(2-isopropyl-5-methylbenzyl)-1-methyl-1H-pyrazole-4-carboxamide) and A10 (N-cyclopropyl-3-(difluoromethyl)-5-fluoro-N-(2-fluoro-6-isopropylbenzyl)-1-methyl-1H-pyrazole-4-carboxamide) were sprayed threefold at BBCH-growth stages 31, 39 and 69 with an use rate of 50 g a.i./ha. All compounds were applied as 100EC formulation adding an adjuvant.
The winter wheat was harvested on Aug. 3, 2012.

[6] = test system: winter wheat variety Dekan; experiment: Foliar application field trial Laacherhof: greening effect in winter wheat; format: in vivo; details: 50 g a.i./ha, sprayed threefold at BBCH 31, 39 and 69; percentage of the color green; untreated control 21.7
Protocol: as §2, §3, §4
The greening effect of the single treatments was evaluated on Jul. 6, 2012.

[7] = 37 g a.i./ha twice (EC 33 and 55)
[8] = 75 g a.i./ha twice (EC 33 and 55)
[9] = 37 g a.i./ha twice (EC 33 and 61)
[10] = 75 g a.i./ha twice (EC 33 and 61)

SMILES: CC(C)c1ccc(Cl)cc1CN(C(=O)c1c(C(F)F)nn(C)c1F)C1CC1 [Compound A5, N-(5-chloro-2-isopropylbenzyl)-N-cyclopropyl-3-(difluoromethyl)-5-fluoro-1-methyl-1H-pyrazole-4-carboxamide]
- Grain Yield (% of Untreated Control) [1, 7]: 128%
- Greening Effect (%) [1, 7]: 54%
- Grain Yield (dt/ha) [1, 7]: 109 dt/ha
- Grain Yield (% of Untreated Control) [1, 8]: 136%
- Greening Effect (%) [1, 8]: 86%
- Grain Yield (dt/ha) [1, 8]: 115 dt/ha
- effect on maintenance of green leaves in winter wheat (in words) ([1]; foliar sprays): clearly has an effect on the maintenance of the green leaves shortly before harvest
- Chlorophyll content (%) [2]: 78%
- Grain Yield (% of Untreated Control) [3, 9]: 117%
- Grain Yield (dt/ha) [3, 9]: 72 dt/ha
- Grain Yield (% of Untreated Control) [3, 10]: 124%
- Grain Yield (dt/ha) [3, 10]: 76 dt/ha
- effect on grain yield in winter wheat (in words) ([3]; foliar sprays, practically disease-free): clearly has an effect on grain yield
- Plant Height (cm)/% ([4]; seed treatment 25 g a.i./dt): 105%
- Weight Root (g)/% ([4]; seed treatment 25 g a.i./dt): 117%
- Weight Dry Plant (g)/% ([4]; seed treatment 25 g a.i./dt): 107%
- Grain Yield (dt)/% ([4]; seed treatment 25 g a.i./dt): 112%
- Weight of 1000 Grains (g)/% ([4]; seed treatment 25 g a.i./dt): 103%
- Plant Height (cm)/% ([4]; seed treatment 100 g a.i./dt): 105%
- Weight Root (g)/% ([4]; seed treatment 100 g a.i./dt): 103%
- Weight Dry Plant (g)/% ([4]; seed treatment 100 g a.i./dt): 108%
- Grain Yield (dt)/% ([4]; seed treatment 100 g a.i./dt): 111%
- Weight of 1000 Grains (g)/% ([4]; seed treatment 100 g a.i./dt): 105%
- impact on development and yield of soybean (in words) ([4]; seed treatment, almost disease free conditions): clearly stimulates the physiological development of soybean plants and boosts both grain yield and the grain weight
- Grain Yield (% of Untreated Control) [5]: 120%
- Grain Yield (dt/ha) ([5]; untreated control 86.25): 103.1 dt/ha
- Greening Effect (%) [6]: 26.7%
